US8986677B2, “Therapeutic compositions and methods” (Pop Test Cortisol LLC, priority 2012, dated 2015)
Blank lines part the entries; values can stand above or below the molecule they belong to.

Key:
[1] = system: organotypic hippocampal slice cultures, CA1 region pyramidal cells; test: Ethanol withdrawal toxicity (propidium iodide uptake) in organotypic hippocampal slice cultures; assay type: cell-based
Source text: (FIG. 2A). […] Co-exposure to the selective glucocorticoid receptor antagonist ORG 34517 with ethanol and corticosterone prevented this withdrawal toxicity. Representative PI images above, (FIG. 2B). Results shown in graph form. *=P<0.05 vs control; **=P<0.05 vs EtOH WD+CORT.
Corticosterone's exacerbation of ethanol withdrawal toxicity is blocked by […] coadministration. […] (FIG. 2). […] Co-exposure to the selective glucocorticoid receptor antagonist ORG 34517 with ethanol and corticosterone prevented this withdrawal toxicity. Representative PI images above, graphed below. *=P<0.05 vs control; **=P<0.05 vs EtOH WD+CORT.

glucocorticoid receptor = target: T1, glucocorticoid receptor (Homo sapiens, UniProt P04150); settings: cited from earlier work
T1 sequence (P04150 1-777): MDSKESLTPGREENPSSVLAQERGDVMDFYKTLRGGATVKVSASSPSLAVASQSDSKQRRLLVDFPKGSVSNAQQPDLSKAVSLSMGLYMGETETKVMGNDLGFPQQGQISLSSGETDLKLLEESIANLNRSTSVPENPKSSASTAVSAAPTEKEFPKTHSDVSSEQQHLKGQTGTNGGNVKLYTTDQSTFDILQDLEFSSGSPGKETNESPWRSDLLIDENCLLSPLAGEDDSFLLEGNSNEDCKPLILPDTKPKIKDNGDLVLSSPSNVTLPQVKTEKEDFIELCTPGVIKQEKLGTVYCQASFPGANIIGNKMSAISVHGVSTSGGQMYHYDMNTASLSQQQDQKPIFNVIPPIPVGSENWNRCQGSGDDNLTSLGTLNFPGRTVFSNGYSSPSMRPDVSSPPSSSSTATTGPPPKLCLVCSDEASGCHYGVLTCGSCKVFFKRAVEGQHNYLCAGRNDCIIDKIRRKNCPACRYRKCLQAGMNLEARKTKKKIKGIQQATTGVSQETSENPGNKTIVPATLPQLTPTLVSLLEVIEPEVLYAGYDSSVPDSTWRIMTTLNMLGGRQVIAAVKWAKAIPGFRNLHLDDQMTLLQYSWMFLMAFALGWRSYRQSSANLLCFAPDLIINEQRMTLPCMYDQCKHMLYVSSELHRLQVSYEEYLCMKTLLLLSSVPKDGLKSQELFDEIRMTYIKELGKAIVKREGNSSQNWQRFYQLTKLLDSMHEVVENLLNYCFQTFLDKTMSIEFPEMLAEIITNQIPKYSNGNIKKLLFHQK

estrogen receptor = target: T2, estrogen receptor (Homo sapiens, UniProt P03372); settings: cited from earlier work
T2 sequence (P03372 1-595): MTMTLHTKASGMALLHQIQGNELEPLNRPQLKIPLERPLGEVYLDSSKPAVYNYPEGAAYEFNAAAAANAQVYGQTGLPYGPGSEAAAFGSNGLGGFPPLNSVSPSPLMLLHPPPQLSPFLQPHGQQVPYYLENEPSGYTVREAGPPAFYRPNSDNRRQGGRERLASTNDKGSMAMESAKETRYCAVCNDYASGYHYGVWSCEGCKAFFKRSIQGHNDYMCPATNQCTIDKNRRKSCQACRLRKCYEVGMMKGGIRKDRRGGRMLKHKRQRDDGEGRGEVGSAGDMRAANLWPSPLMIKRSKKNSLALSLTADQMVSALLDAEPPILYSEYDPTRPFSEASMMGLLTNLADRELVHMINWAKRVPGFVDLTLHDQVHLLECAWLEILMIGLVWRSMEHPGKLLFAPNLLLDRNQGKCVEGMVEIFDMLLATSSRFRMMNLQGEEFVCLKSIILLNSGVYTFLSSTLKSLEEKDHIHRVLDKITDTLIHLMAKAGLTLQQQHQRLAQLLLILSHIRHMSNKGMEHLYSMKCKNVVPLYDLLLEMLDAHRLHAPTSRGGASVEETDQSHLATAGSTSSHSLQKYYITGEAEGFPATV

progesterone receptor = target: T3, progesterone receptor (Homo sapiens, UniProt P06401); settings: cited from earlier work
T3 sequence (P06401 1-933): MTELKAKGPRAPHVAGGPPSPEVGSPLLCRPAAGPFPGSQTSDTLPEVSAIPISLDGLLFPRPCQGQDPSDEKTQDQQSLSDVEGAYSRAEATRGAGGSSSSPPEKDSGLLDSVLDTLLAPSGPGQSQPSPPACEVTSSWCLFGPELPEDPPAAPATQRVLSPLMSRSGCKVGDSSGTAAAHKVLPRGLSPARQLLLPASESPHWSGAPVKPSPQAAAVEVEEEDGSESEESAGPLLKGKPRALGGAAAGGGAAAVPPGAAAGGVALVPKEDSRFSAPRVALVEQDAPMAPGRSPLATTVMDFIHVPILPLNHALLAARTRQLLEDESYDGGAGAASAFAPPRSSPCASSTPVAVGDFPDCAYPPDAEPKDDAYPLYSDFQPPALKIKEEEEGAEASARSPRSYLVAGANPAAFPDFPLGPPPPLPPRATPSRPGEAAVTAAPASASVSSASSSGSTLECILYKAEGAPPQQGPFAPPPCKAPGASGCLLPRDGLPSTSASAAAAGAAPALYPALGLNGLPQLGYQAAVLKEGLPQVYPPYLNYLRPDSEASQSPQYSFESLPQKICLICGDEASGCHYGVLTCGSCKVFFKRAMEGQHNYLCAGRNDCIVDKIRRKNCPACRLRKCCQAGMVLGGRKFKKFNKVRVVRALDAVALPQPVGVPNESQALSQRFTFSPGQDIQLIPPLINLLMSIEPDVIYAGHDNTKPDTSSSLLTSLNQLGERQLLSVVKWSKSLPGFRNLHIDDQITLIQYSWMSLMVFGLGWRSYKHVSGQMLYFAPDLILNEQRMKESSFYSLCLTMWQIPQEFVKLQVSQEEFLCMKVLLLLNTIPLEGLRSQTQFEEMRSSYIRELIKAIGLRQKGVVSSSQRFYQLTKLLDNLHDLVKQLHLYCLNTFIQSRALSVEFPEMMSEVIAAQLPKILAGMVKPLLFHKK

[2] = all phase I and phase II clinical trials performed with the compound; cited from earlier work

- behavior of ethanol-naïve rats (adult male rats; rat, in vivo): did not alter behavior in any manner
Compound: CC#C[C@]1(O)CC[C@H]2[C@@H]3CCC4=CC(=O)CCC4=C3[C@@H](c3ccc4c(c3)OCO4)C[C@@]21C [ORG 34517, (11β,17β)-11-(1,3-benzodioxol-5-yl)-17-hydroxy-17-(1-propynyl)estra-4,9-dien-3-one]
- ethanol withdrawal toxicity (propidium iodide uptake, CA1 region) ([1]; co-exposure with ethanol (50 mM) and corticosterone (1 μM), 1 day of ethanol withdrawal, P<0.05 vs EtOH WD+CORT): prevented
- behavioral symptoms of the ethanol withdrawal syndrome (adult male rats; 20 mg/kg s.c. once daily immediately prior to binge ethanol (i.g.) at 0800 hrs on 4 consecutive days, adult male rats, P<0.001 vs EtOH WD): significantly reduced
- reductions in whole body tremor and wet shakes (adult male rats; 20 mg/kg s.c. once daily prior to binge ethanol, 4 days, adult male rats): most evident
- glucocorticoid receptor binding affinity (glucocorticoid receptor): high
- cross-binding / affinity for estrogen receptor (estrogen receptor): without significant cross-binding
- cross-binding / affinity for progesterone receptor (progesterone receptor): without significant cross-binding
- significant toxicities and side effects [2]: none were identified

Compound: C[C@]12C[C@H](O)[C@H]3[C@@H](CCC4=CC(=O)CC[C@@]43C)[C@@H]1CC[C@@H]2C(=O)CO [corticosterone]
- toxicity (propidium iodide uptake) in CA1 region pyramidal cells ([1]; corticosterone 1 μM with ethanol 50 mM, then 1 day of ethanol withdrawal in the presence of corticosterone): significant toxicity
- propidium iodide uptake, exposure alone ([1]; corticosterone alone): did not alter

- peak blood ethanol levels (adult male rats; male, rat, in vivo, 4 days): 180.27-103.5
Compound: CCO [ethanol]
